Experimental data published in patent US11160788B2, “Caspase-1 inhibition and uses thereof for prevention and treatment of neurological conditions” (priority 2016, dated 2021).

How the values were obtained:
[1] = test system: APP^WT-transfected human primary neurons; experiment: Neuritic beading in APPWT-transfected human primary neurons; assay type: cell-based
Procedure: (§1) FIG. 13: VX-765 protects CNS primary human neurons (HPN) against APP- or serum deprivation-mediated neuritic beading. (a) MTT assay with increasing dose of VX-765. (b) Fluorescent micrographs showing homogeneous distribution of EGFP in normal neurons and neuritic beading in APP-transfected neurons. (c) Percentage beading in APP-transfected or serum-deprived neurons treated 1 h before and continuously with stressor (Pre-treatment) or 48 h after stressor (post-beading treatment) with 25 or 50 μM VX-765 or with 5 μM Z-YVAD-fmk Casp1 peptide inhibitor. […] (d-e) HPN secreted or cellular Aβ42/total Aβ38+40+42 (d) (F(3,4)=12.73, p=0.0163, ANOVA, Dunnett's post-hoc compared to Serum+DMSO, *p<0.05), and (e) levels of secreted II-1β, IFN-γ, TNF-α, and II-6 from untreated (+S), serum deprived (−S), or serum-deprived human neurons treated with 25 or 50 μM VX-765.
EGFP-labeled human primary neurons were either APP^WT transfected or serum deprived. Two treatment strategies were employed to determine VX-765's effects on neuronal degeneration: our Pre-Treatment strategy looked at whether VX-765 could block neuronal degeneration when administered 1 hr prior to APP^WT transfection or serum deprivation, while our Reversal Treatment strategy looked at whether VX-765 could reverse degenerative effects when administered 48 hrs after APP^WT transfection or serum deprivation. Neurons displaying beaded morphology were counted with live imaging and measured as a percentage of the total number of eGFP+ neurons from 24-72 hrs after treatment. The irreversible caspase-1 inhibitor YVAD-fmk was used as positive control in our experiments. Results were obtained from averaging counts for at least 100 eGFP+ neurons per experiment in three independent neuron preparations.

[2] = test system: J20 mice; experiment: Iba1 and GFAP immunostaining, preventive treatment of J20 mice; assay type: in vivo, mouse
Source text: FIG. 4: Immunostainings of mice hippocampus at 4 months of age (PREVENTION GROUP) with microglial Iba-1, astrocyte GFAP, and synaptic synaptophysin antibodies.
FIG. 25: Iba1 immunopositive staining in the mice brain hippocampus at different times of washout (a,b). All sections were immunostained together and automatically with Dako immunostainer and the number of Iba1-immunopositive […] counted stereologically. Statistics done as described in FIG. 10b. (c) Analyses of subtypes of Iba1-immunopositive microglia as described in FIG. 10c.
FIG. 26: GFAP immunopositive staining in the hippocampus of mice brains at different times of washout (a,b). All sections were immunostained together and automatically with Dako immunostainer. Quantitation of GFAP-immunopositive astrocytes was done as described above.
(§2) We directly tested whether pre-symptomatic inhibition of inflammation in a mouse genetic model of Alzheimer disease can stem the progression of memory and behavioral deficits, and Alzheimer disease-like pathology. The J20 amyloid precursor protein Swedish/Indiana mutant mouse was treated at 2 months of age for a one month period with 50 mg/Kg Caspase-1 inhibitor VX-765 (FIG. 22a).

[3] = test system: J20 mice; experiment: NOR, preventive treatment of pre-symptomatic J20 mice; assay type: in vivo, mouse
Procedure: FIG. 22: Novel object recognition behavioral assay to assess episodic memory in J20 mice. Mice were treated with vehicle (WT and J20) or 50 mg/kg VX-765 (J20) at 2 months of age for 1 month (3 injections per week×4 weeks=12 injections). (a) Schematic representation of the manner in which the studies were carried out. (b) Discrimination index indicates the number of touches of the novel object minus the number of touches of the familiar object divided by the number of total touches for both objects. Two-way ANOVA (F(2,240)=75.62, p<0.0001) with Dunnett's compared to the J20+vehicle. * p<0.05, **** p<0.0001 (c) % mice impaired in NOR in each group of mice tested at the different time points.
Studies are done on 8 (pre-symptomatic) week old J20 and littermate WT controls injected with 50 mg/Kg VX-765 or vehicle. The 8 week old mice are injected for 4 weeks (3 injections per week) and monitored for memory deficits at 16 weeks of age and every 4 weeks thereafter until the mice reach 8 months of age. VX-765 delays the onset of cognitive deficits by at least 5 months in the J20 mouse.
To determine if VX-765 can delay the appearance of AD-like cognitive deficits and pathology in the J20 mice, J20 mice were injected 3 times per week for 4 weeks starting at 2 months of age. We started NOR tests at 4 months of age, after 1 month without drug, and retested every month thereafter until 8 months of age (FIG. 3). […] At 8 months of age, only 1 of 3 mice have NOR deficit resulting in an averaged normal behavior. Since we sacrificed 2 mice per group at 4, 5, and 6 months and 3 mice per group at 7 and 8 months, note that the results of the older groups need more experimental data for solid conclusions.
as §2

[4] = test system: CNS primary human neurons (HPN); experiment: MTT assay in primary human neurons; assay type: cell-based; conditions: 25, 50, 100, or 200 μM for 72 hours
Procedure: as §1
To determine if VX-765 can protect human neurons against neurodegeneration, VX-765 was assessed in primary human fetal CNS neuron cultures. Treatment of HPN with 25, 50, 100, or 200 μM VX-765 for 72 hours was not toxic (FIG. 13a). […] HPN were pre-treated with VX-765 for 1 h before APP transfection and treatment continued thereafter. […] To assess if neuritic beading was reversible, VX-765 was administered 48 hours after APP^WT transfection or serum deprivation.

[5] = test system: J20 mice; experiment: Amyloid immunostaining and ELISA, preventive treatment of J20 mice; assay type: in vivo, mouse
Source text: FIG. 24: Immunostaining of mice brains at 8 months of age (20 week washout) with anti-amyloid beta peptide 1-40 antiserum (a). […] (b) Quantitation of the immunopositive density of amyloid staining at 4, 8, 12, 16, and 20 weeks washout of VX-765 when mice are 4, 5, 6, 7, and 8 months respectively. (c) ELISA analyses of RIPA-soluble and formic-acid soluble hippocampal and cortical tissue protein extracts.
as §2

Question: For `CCO[C@@H]1OC(=O)C[C@@H]1NC(=O)[C@@H]1CCCN1C(=O)[C@@H](NC(=O)c1ccc(N)c(Cl)c1)C(C)(C)C` [VX-765, (S)-1-((S)-2-{[1-(4-amino-3-chloro-phenyl)-methanoyl]-amino}-3,3-dimethyl-butanoyl)-pyrrolidine-2-carboxylic acid ((2R,3S)-2-ethoxy-5-oxo-tetrahydro-furan-3-yl)-amide], which neuritic beading ([1]; pre-treatment 1 h before and continued, VX-765 25 and 50 μM, Z-YVAD-fmk 5 μM, 48 and 72 h) is on record?
Answer: prevented neuritic beading

Question: And the “reduction in neuritic beading” value ([1]; pre-treatment 1 hr prior, 48 hrs and 72 hrs post transfection, vs DMSO)?
Answer: 40%

Question: And the GFAP astrogliosis ([2]; 4 month old J20 brains)?
Answer: possibly GFAP astrogliosis

Question: And the “microglial Iba1 positive inflammation” value ([2]; 4 month old J20 brains)?
Answer: reduced microglial Iba1 positive inflammation

Question: And the “astrocytic GFAP immunostaining” value ([2]; different times of washout)?
Answer: does not reach statistical significance

Question: What about the “Iba1 positive microglial inflammation” value ([2]; hippocampus and cortex, different times of washout) of the same compound?
Answer: strongly decreased microglial inflammation

Question: What about the subtype of microglia ([2]; up to the 12 week washout, hippocampus and cortex) of the same compound?
Answer: restores resting microglia numbers

Question: What about the “delay of the onset of cognitive deficits” value ([3]; 50 mg/Kg, 3 injections per week for 4 weeks from 8 weeks of age) of the same compound?
Answer: at least 5 months

Question: What about the NOR performance ([3]; 4, 5 and 6 months of age (1, 2, 3 month washout)) of the same compound?
Answer: perform normally on NOR

Question: What about the “mice that developed NOR deficits” value ([3]; 7 months of age (4 month washout)) of the same compound?
Answer: 3 out of 6

Question: And the “mice with NOR deficit” value ([3]; 8 months of age)?
Answer: 1 of 3

Question: What about the NOR discrimination index ([3]; after 16 and 20 week washout) of the same compound?
Answer: lower performance although they are still performing better than vehicle-treated J20 mice

Question: And the NOR discrimination index ([3]; average, each washout time point (4 to 20 weeks))?
Answer: perform like the WT mice

Question: What about the “percentage of mice impaired in NOR” value ([3]; each washout time point) of the same compound?
Answer: does not differ significantly from vehicle-treated WT mice

Question: And the “toxicity (MTT assay)” value [4]?
Answer: not toxic

Question: What about the “RIPA-soluble Aβ38, Aβ40, Aβ42, total Aβ, Aβ42/total Aβ” value ([5]; ELISA, hippocampal tissue) of the same compound?
Answer: do not detect major differences

Question: What about the “formic acid soluble Aβ measures” value ([5]; cortical) of the same compound?
Answer: not reduced

Question: And the “amyloid levels in RIPA-soluble protein extracts” value ([5]; cortical tissue)?
Answer: no effect

Question: And the “immunopositive density of amyloid staining” value ([5]; hippocampi and cortex, 16 and 20 week washout)?
Answer: slightly less amyloid

Question: What about the “formic acid soluble Aβ42/total Aβ” value ([5]; hippocampi, 20 week washout) of the same compound?
Answer: lower

Question: And the “RIPA-soluble Aβ42/total Aβ” value ([5]; hippocampus, 20 week washout)?
Answer: slightly decreased
